Measured values reported in publication PMC5786788, “Antimicrobial Octapeptin C4 Analogues Active against Cryptococcus Species” (Antimicrobial Agents and Chemotherapy, 2018).
Converted amounts (≈) assume the structure as drawn. Read-outs that look alike come from different tables or passages of the source.

How the values were obtained:
[1] = test system: C. neoformans var. grubii; experiment: microbe, parasite or virus in culture
Method: The MICs of the yeast strains for PMB, PME, and octapeptin C4 and its derivatives were determined in accordance with CLSI M27-A2 guidelines using YNB (Becton Dickinson, USA) medium supplemented with 10 mM ammonium sulfate and 2% glucose, a final inoculum concentration of 1.5 × 10^3 to 2.0 × 10^3 cells/ml, and incubation at 35°C for 72 h ([39]). […] The MICs for PMB, PME, and octapeptin C4 for A. fumigatus were determined in accordance with the CLSI M38-A2 guidelines ([40]) using synthetic RPMI 1640 medium (with glutamine, without bicarbonate and with phenol red; Life Technologies, USA). The final inoculum concentration was 0.4 × 10^4 to 5 × 10^4 cells/ml, with incubation at 35°C for 48 h. […] All assays were completed in triplicate. Fluconazole was used as a positive control where the MIC was determined at both 50% growth (in accordance with CLSI M27-A2 guidelines) and when there was a “no visible growth” reading. […]

[2] = test system: C. neoformans var. gattii; experiment: microbe, parasite or virus in culture; conditions: Cryptococcus neoformans
Method: The MICs of the yeast strains for PMB, PME, and octapeptin C4 and its derivatives were determined in accordance with CLSI M27-A2 guidelines using YNB (Becton Dickinson, USA) medium supplemented with 10 mM ammonium sulfate and 2% glucose, a final inoculum concentration of 1.5 × 10^3 to 2.0 × 10^3 cells/ml, and incubation at 35°C for 72 h ([39]). […] The MICs for PMB, PME, and octapeptin C4 for A. fumigatus were determined in accordance with the CLSI M38-A2 guidelines ([40]) using synthetic RPMI 1640 medium (with glutamine, without bicarbonate and with phenol red; Life Technologies, USA). The final inoculum concentration was 0.4 × 10^4 to 5 × 10^4 cells/ml, with incubation at 35°C for 48 h. […] All assays were completed in triplicate. Fluconazole was used as a positive control where the MIC was determined at both 50% growth (in accordance with CLSI M27-A2 guidelines) and when there was a “no visible growth” reading.

OC(Cn1cncn1)(Cn1cncn1)c1ccc(F)cc1F [Fluconazole, fluconazole] showed an MIC ([1]; Cryptococcus neoformans, read-out: MIC-2, strain 486 (USA), 50% fungal growth) of 12.5 µg/mL (≈ 40.8 µM), an MIC ([1]; Cryptococcus neoformans, read-out: MIC-2, strain 488 (AIDS+, pre-HAART USA), 50% fungal growth) of 12.5 µg/mL (≈ 40.8 µM) and an MIC ([1]; Cryptococcus neoformans, read-out: MIC-2, strain 490 (USA), 50% fungal growth) of 6.25 µg/mL (≈ 20.4 µM). It also gave an MIC ([1]; Cryptococcus neoformans, read-out: MIC-2, strain 496 (USA), 50% fungal growth) of 6.25 µg/mL (≈ 20.4 µM), an MIC ([1]; Cryptococcus neoformans, read-out: MIC-2, strain 500 (USA), 50% fungal growth) of 6.5 µg/mL (≈ 21.2 µM) and an MIC ([1]; Cryptococcus neoformans, read-out: MIC-2, strain 502 (ARR3+ USA), 50% fungal growth) of 6.5 µg/mL (≈ 21.2 µM). It also gave an MIC ([1]; Cryptococcus neoformans, read-out: MIC-2, strain 505 (India), 50% fungal growth) of 6.25 µg/mL (≈ 20.4 µM), an MIC ([1]; Cryptococcus neoformans, read-out: MIC-2, strain 507 (India), 50% fungal growth) of 6.25 µg/mL (≈ 20.4 µM) and an MIC ([1]; Cryptococcus neoformans, read-out: MIC-2, strain 510 (VNII India), 50% fungal growth) of 1.56 µg/mL (≈ 5.09 µM). The MIC ([1]; Cryptococcus neoformans, read-out: MIC-2, strain 512 (India), 50% fungal growth) was 6.25 µg/mL (≈ 20.4 µM), the MIC ([1]; Cryptococcus neoformans, read-out: MIC-2, strain 516 (India), 50% fungal growth) was 6.25 µg/mL (≈ 20.4 µM) and the MIC ([1]; Cryptococcus neoformans, read-out: MIC-2, strain 518 (VNI India), 50% fungal growth) was 6.25 µg/mL (≈ 20.4 µM). For the same compound, the MIC ([1]; Cryptococcus neoformans, read-out: MIC-2, strain 522 (India), 50% fungal growth) was 6.25 µg/mL (≈ 20.4 µM), the MIC ([1]; Cryptococcus neoformans, read-out: MIC-2, strain 525 (India), 50% fungal growth) was 12.5 µg/mL (≈ 40.8 µM) and the MIC ([1]; Cryptococcus neoformans, read-out: MIC-2, strain 1188 (Japan lung), 50% fungal growth) was 3.13 µg/mL (≈ 10.2 µM). It also gave an MIC ([1]; Cryptococcus neoformans, read-out: MIC-2, strain 1194 (Italy), 50% fungal growth) of 1.56 µg/mL (≈ 5.09 µM), an MIC ([1]; Cryptococcus neoformans, read-out: MIC-2, strain 1196 (Botswana CSF/AIDS), 50% fungal growth) of 12.5 µg/mL (≈ 40.8 µM) and an MIC ([1]; Cryptococcus neoformans, read-out: MIC-2, strain 1197 (Botswana CSF/AIDS), 50% fungal growth) of 3.13 µg/mL (≈ 10.2 µM). The MIC ([1]; Cryptococcus neoformans, read-out: MIC-2, strain 1199 (Uganda CSF/HIV+ VNII), 50% fungal growth) was 3.13 µg/mL (≈ 10.2 µM), the MIC ([1]; Cryptococcus neoformans, read-out: MIC-2, strain H99O (lab strain), 50% fungal growth) was 6.25 µg/mL (≈ 20.4 µM) and the MIC ([1]; Cryptococcus neoformans, read-out: MIC-2, strain H99 XL (lab strain), 50% fungal growth) was 3.13 µg/mL (≈ 10.2 µM). It also gave an MIC ([1]; Cryptococcus neoformans, read-out: MIC-2, strain H99 stud (lab strain), 50% fungal growth) of 3.13 µg/mL (≈ 10.2 µM), an MIC ([1]; Cryptococcus neoformans, strain 486 (USA), no visible growth) of 25 µg/mL (≈ 81.6 µM) and an MIC ([1]; Cryptococcus neoformans, strain 488 (AIDS+, pre-HAART USA), no visible growth) of 25 µg/mL (≈ 81.6 µM). It also gave an MIC ([1]; Cryptococcus neoformans, strain 490 (USA), no visible growth) of 12.5 µg/mL (≈ 40.8 µM), an MIC ([1]; Cryptococcus neoformans, strain 496 (USA), no visible growth) of 12.5 µg/mL (≈ 40.8 µM) and an MIC ([1]; Cryptococcus neoformans, strain 500 (USA), no visible growth) of 12.5 µg/mL (≈ 40.8 µM). It also gave an MIC ([1]; Cryptococcus neoformans, strain 502 (ARR3+ USA), no visible growth) of 12.5 µg/mL (≈ 40.8 µM), an MIC ([1]; Cryptococcus neoformans, strain 505 (India), no visible growth) of 6.25 µg/mL (≈ 20.4 µM) and an MIC ([1]; Cryptococcus neoformans, strain 507 (India), no visible growth) of 12.5 µg/mL (≈ 40.8 µM). The MIC ([1]; Cryptococcus neoformans, strain 510 (VNII India), no visible growth) was 3.13 µg/mL (≈ 10.2 µM), the MIC ([1]; Cryptococcus neoformans, strain 512 (India), no visible growth) was 12.5 µg/mL (≈ 40.8 µM) and the MIC ([1]; Cryptococcus neoformans, strain 516 (India), no visible growth) was 12.5 µg/mL (≈ 40.8 µM). It also gave an MIC ([1]; Cryptococcus neoformans, strain 518 (VNI India), no visible growth) of 12.5 µg/mL (≈ 40.8 µM), an MIC ([1]; Cryptococcus neoformans, strain 522 (India), no visible growth) of 12.5 µg/mL (≈ 40.8 µM) and an MIC ([1]; Cryptococcus neoformans, strain 525 (India), no visible growth) of 25 µg/mL (≈ 81.6 µM). It also gave an MIC ([1]; Cryptococcus neoformans, strain 1188 (Japan lung), no visible growth) of 12.5 µg/mL (≈ 40.8 µM), an MIC ([1]; Cryptococcus neoformans, strain 1194 (Italy), no visible growth) of 6.25 µg/mL (≈ 20.4 µM) and an MIC ([1]; Cryptococcus neoformans, strain 1196 (Botswana CSF/AIDS), no visible growth) of 25 µg/mL (≈ 81.6 µM). It also gave an MIC ([1]; Cryptococcus neoformans, strain 1197 (Botswana CSF/AIDS), no visible growth) of 12.5 µg/mL (≈ 40.8 µM), an MIC ([1]; Cryptococcus neoformans, strain 1199 (Uganda CSF/HIV+ VNII), no visible growth) of 12.5 µg/mL (≈ 40.8 µM) and an MIC ([1]; Cryptococcus neoformans, strain H99O (lab strain), no visible growth) of 12.5 µg/mL (≈ 40.8 µM). For the same compound, the MIC ([1]; Cryptococcus neoformans, strain H99 XL (lab strain), no visible growth) was 6.25 µg/mL (≈ 20.4 µM), the MIC ([1]; Cryptococcus neoformans, strain H99 stud (lab strain), no visible growth) was 6.25 µg/mL (≈ 20.4 µM) and the MIC ([1]; read-out: MIC-2, strain 1189 (USA BAL/HIV), 50% fungal growth) was 12.5 µg/mL (≈ 40.8 µM). It also gave an MIC ([1]; strain 1189 (USA BAL/HIV), no visible growth) of 25 µg/mL (≈ 81.6 µM), an MIC ([2]; ATCC24066, read-out: MIC-2, strain ATCC 24066 (NIH 18), 50% fungal growth) of 1.56 µg/mL (≈ 5.09 µM) and an MIC ([2]; ATCC24066, strain ATCC 24066 (NIH 18), no visible growth) of 3.13 µg/mL (≈ 10.2 µM). For the same compound, the MIC ([2]; ATCC32269, read-out: MIC-2, strain ATCC 32269, 50% fungal growth) was 0.78 µg/mL (≈ 2.55 µM), the MIC ([2]; ATCC32269, strain ATCC 32269, no visible growth) was 1.56 µg/mL (≈ 5.09 µM) and the MIC ([2]; ATCC32608, read-out: MIC-2, strain ATCC 32608 (NIH 191), 50% fungal growth) was 0.39 µg/mL (≈ 1.27 µM). For the same compound, the MIC ([2]; ATCC32608, strain ATCC 32608 (NIH 191), no visible growth) was 0.78 µg/mL (≈ 2.55 µM), the MIC ([2]; ATCC32609, read-out: MIC-2, strain ATCC 32609 (NIH444), 50% fungal growth) was 3.13 µg/mL (≈ 10.2 µM) and the MIC ([2]; ATCC32609, strain ATCC 32609 (NIH444), no visible growth) was 6.25 µg/mL (≈ 20.4 µM). It also gave an MIC ([2]; ATCC34878, read-out: MIC-2, strain ATCC 34878, 50% fungal growth) of 3.13 µg/mL (≈ 10.2 µM), an MIC ([2]; ATCC34878, strain ATCC 34878, no visible growth) of 6.25 µg/mL (≈ 20.4 µM) and an MIC ([2]; ATCC34882, read-out: MIC-2, strain ATCC 34882, 50% fungal growth) of 1.56 µg/mL (≈ 5.09 µM).
